In patent US12661336B2, “Polymorphs of phenyl pyrrole aminoguandium salts” (SYNACT PHARMA APS, priority 2021, dated 2026):
Structures can show the parent of a compound that is named as a salt. Where two headings read alike, the source gives them in different places. Values belong to the molecule of their own block, whether it stands above or below them.

What was measured:
[1] = Thermodynamic solubility of AP1189 salts in 0.5 M and 0.2 M buffer solutions (Example 6, Tables 38a, 38b); details: for XRPD analysis of residual solids from solubility experiment / Solubility (mM freebase): 0.5 M buffer; for Solubility (mM freebase): 24 h
[2] = buffer solution pH 1.2, pH adjusted to 1.2 with concentrated hydrochloric acid, samples fully dissolved, HPLC
Procedure: As a result, the pH was adjusted to 1.2 with concentrated hydrochloric acid in both solutions. Both sample preparations were diluted 500 times with the sample diluent (acetonitrile:water 1:1 v/v).

[3] = 40° C./75% RH for 24 hours
Procedure: The resulting mixture was thermally cycled for 3 days between 40° C. and 5° C. (Ramp rate: 0.1° C./min with isothermal holds of 1 hour at 40° C. and 5° C.).
The resulting mixture was thermally cycled for 3 days between 40° C. and 5° C. (Ramp rate: 0.1° C./min with isothermal holds of 1 hour at 40° C. and 5° C.). Solids were isolated by centrifuge filtration and analysed wet by XRPD. Sample was dried at 40° C. under vacuum for 24 hours then reanalysed by XRPD.
The resulting mixture was thermally cycled for 3 days between 40° C. and 5° C. (Ramp rate: 0.1° C./min with isothermal holds of 1 hour at 40° C. and 5° C.). Solids were isolated by centrifuge filtration and analysed wet by XRPD.

Molecule: CC(=O)O.N=C(N)NN=CC=Cc1cccn1-c1ccccc1[N+](=O)[O-] [AP1189 acetate, N-{3-[1-(2-nitrophenyl)-1H-pyrrol-2-yl]-allylidene}-aminoguanidinium acetate]
XRPD analysis of residual solids from solubility experiment ([1]; pH 1.2): a likely HCl salt (assigned as HCl Pattern 1) was formed
XRPD analysis of residual solids from solubility experiment ([1]; pH 4.5): remained
solubility, comparison of salts (in words) ([1]; 0.5 M buffers, succinate Pattern 1 compared with fumarate Pattern 1): highest solubility
solubility at pH 1.2 (in words) ([1]; pH 1.2): high solubility
Determined concentration in pH 1.2 samples, pH 1.2 (time) [2]: >223 mg/mL
Determined concentration in pH 1.2 samples, pH 1.2 (time) ([2]; time: acetate 5 h, succinate 0.5 h): >617 mM (5 h)

Molecule: N=C(N)NN=CC=Cc1cccn1-c1ccccc1[N+](=O)[O-].O=S(=O)(O)NC1CCCCC1 [Cyclamic Acid Pattern 5, N-{3-[1-(2-nitrophenyl)-1H-pyrrol-2-yl]-allylidene}-aminoguanidinium cyclamate]
XRPD diffractogram after storage [3]: consistent with pattern 5

Solubility (mM freebase) ([1]; pH 1.2, thermodynamic solubility): 7.84 mM freebase
Solubility (mM freebase) ([1]; pH 4.5, thermodynamic solubility): 1.64 mM freebase
Molecule: N=C(N)N/N=C/C=C/c1cccn1-c1ccccc1[N+](=O)[O-] [Fumarate Salt Pattern 1 (Form D)]

Molecule: N-{3-[1-(2-nitrophenyl)-1H-pyrrol-2-yl]-allylidene}-aminoguanidine glutaric acid salt [Glutaric Acid Pattern 1]
XRPD diffractogram after storage [3]: resulted in a new pattern by XRPD (Pattern 4)

Molecule: N-{3-[1-(2-nitrophenyl)-1H-pyrrol-2-yl]-allylidene}-aminoguanidinium edisylate [Ethane-1,2-disulfonic Acid Pattern 5]
XRPD diffractogram after storage [3]: consistent with pattern 1
